Values quoted from earlier work, collected in patent US4650664A (Dr. Karl Thomae GmbH, priority 1982, dated 1987).

Details: human

Compound: OCCN(CCO)c1nc(N2CCCCC2)c2nc(N(CCO)CCO)ncc2n1 [Mopidamol, 2,6-bis-(diethanolamino)-4-piperidinopyrimido[5,4-d]pyrimidine]
- Excretion in the urine: only excreted in the urine to a very small extent
